Experiments:
[1] = test system: 22RV1/PIM-1 xenografts; test: 22RV1/PIM-1 over-expression tumor xenograft; assay type: in vivo, mouse; conditions: mice bearing 22RV1 or 22RV1/PIM-1 xenografts
Excerpt: (§1) Male and female Nu/Nu mice were purchased from Harlan Sprague Dawley (Indianapolis, Ind.). Female Nu/Nu mice were used for all xenograft evaluations with the exception of the PC-3 xenografts where male Nu/Nu mice were used. Cell lines were expanded in vitro in complete media, and if adherent were harvested by trypsin-EDTA, centrifuged and resuspended in PBS 1:1 with Matrigel (BD Bioscienes). Cells were inoculated subcutaneously in the right hind flank of mice. When tumors reached 100-200 mm^3 by caliper measurement, mice were randomized and dosing of SGI-9481 or vehicle control began and continued every day for 5 days (QD×5) with 2 days off for 18-21 days. Tumor volumes and body weights were determined twice a week, and tumor weights were measured at the completion of the translational xenograft studies.
(§2) The prostate cancer cell line 22RV1 engineered to over-express PIM-1 as previously described (Mumenthaler, et al, Mol. Cancer Ther., 2009, 8(10)2882-93) was evaluated in vivo. A second model engineered to over-express PIM-2 was established using the NIH-3T3 mouse fibroblast cell line.

[2] = test system: NIH-3T3/PIM-2 xenografts; test: NIH-3T3/PIM-2 over-expression tumor xenograft; assay type: in vivo, mouse; conditions: mice bearing NIH-3T3 or NIH-3T3/PIM-2 xenografts
Excerpt: as §1, §2

[3] = test system: UM-UC-3 cells; test: Colony formation assay, UM-UC-3; assay type: cell-based
Experimental: (§3) For shRNA growth experiments, 500 UM-UC-3 cells were seeded in a 12-well plate 48 hours post-transduction and cultured for 8-10 days at 37° C. in 5% CO2. Cells were fixed with 4% paraformaldehyde in PBS, washed twice with PBS, and stained with a crystal violet solution (1% crystal violet, 10% ethanol in water). Stained cells were washed thrice with water, and imaged after drying on a GelCount colony counter (Oxford Optronix Ltd., Oxford, UK). Total staining intensity per well was determined by lysis of cells with 200 μl of Triton X-100 lysis buffer (1% Triton X-100, 50 mM Tris-HCl pH 7.4, 150 mM NaCl, 1 mM EDTA). Lysates (100 μl) from each well were transferred to a clear 96-well plate and absorbance at 560 nm was determined on an Envision microplate reader. IC50 values were determined using GraphPad Prism software. For compound treated PC-3 and UM-UC-3, cells were seeded and stained as above, but were incubated with various concentrations of test compound or DMSO one day after seeding.
(§4) Translational models were also explored for PIM dependency using shRNA knockdown. The UM-UC-3 urinary epithelial bladder carcinoma cell line was used to verify and validate dependency on PIM-1 for growth. […] Reduction of PIM-1 mRNA and growth also were observed using both PIM-1 and PIM-2 shRNA in the androgen-independent prostate carcinoma cell line PC-3 (data not shown).

[4] = test system: PC-3 cells; test: Colony formation assay, PC-3; assay type: cell-based
Experimental: as §3, §4

[5] = test system: UM-UC-3 xenograft tumors; test: Established UM-UC-3 mouse xenograft tumors; assay type: in vivo; conditions: oral dosing of 200 mg/kg
Excerpt: as §1, with “When tumors reached 100-200 mm^3 by caliper measurement, mice were randomized and dosing of SGI-9481 or vehicle control began and continued every day for 5 days (QD×5) with 2 days off for 18-21 days.” left out

[6] = test system: PC-3 xenograft tumors; test: Established PC-3 mouse xenograft tumors; assay type: in vivo; conditions: oral dosing of 200 mg/kg
Excerpt: as §1, with “When tumors reached 100-200 mm^3 by caliper measurement, mice were randomized and dosing of SGI-9481 or vehicle control began and continued every day for 5 days (QD×5) with 2 days off for 18-21 days.” left out

[7] = test system: ML-2 cells (wild-type FLT3) xenografts; test: ML-2 (wild-type FLT3) mouse xenograft; assay type: in vivo
Excerpt: as §1

[8] = Pharmacokinetic studies of PC-3 tumor-burdened mice; assay type: in vivo, mouse; conditions: 200 mg/kg dosing
[9] = test system: MV-4-11; test: In vitro viability assay, MV-4-11; assay type: cell-based
Experimental: (§5) Adherent or suspension cancer cell lines were seeded at 2000-5000 cells/well in a 96-well plate, or 1000-2000 cells/well in a 384-well plate. Suspension cells were treated with drug the same day as seeding, while adherent cells were incubated overnight at 37° C. in 5% CO2 prior to drug treatment. All cells were treated for 72 hours, then lysed with ATPlite (Perkin Elmer) and measured on an Envision microplate reader. IC50 values were determined using GraphPad Prism software.
(§6) Over 35 cell lines were tested, and the most sensitive cell lines from various indications were selected and verified by multiple EC50 determinations (FIG. 6). […] Anti-proliferative activity using PIM-2 shRNA against FLT3-ITD driven leukemia lines has been observed (Adam (2006) Cancer Res 66:3828-35 data not shown).

[10] = test system: MOLM-13; test: In vitro viability assay, MOLM-13; assay type: cell-based
Experimental: as §5, §6

SMILES	changes in body weight [1]	changes in body weight [2]	colony growth [3]	colony growth [4]	changes in body weight or gross adverse toxicity [5]	tumor growth measured by volume (caliper) and by final tumor weight [5]	changes in body weight or gross adverse toxicity [6]	tumor growth measured by volume (caliper) and by final tumor weight [6]	tumor growth [7]	plasma levels [8]	tumor tissue levels [8]	sensitivity of cell line [9]	sensitivity of cell line [10]
CC(C)(O)[C@H]1CC[C@H](Nc2ccc3ncc(-c4cccc(C(F)(F)F)c4)n3n2)CC1 [Compound 8-31]	No significant changes	No significant changes	reduced	reduced	no significant changes	significantly reduced	no significant changes	significantly reduced	significant tumor growth inhibition	above the in vitro proliferation EC50	above the in vitro proliferation EC50	–	–
CC(C)(O)[C@H]1CC[C@H](Nc2ccc3ncc(-c4cccc(C(F)(F)F)c4)n3n2)CC1 [SGI-9481]	–	–	–	–	–	–	–	–	–	–	–	particularly sensitive	particularly sensitive

Reference: patent publication US10392392B2, “Substituted imidazo[1,2-B]pyridazines as protein kinase inhibitors” (Tolero Pharmaceuticals, Inc., priority 2011, dated 2019)
